Data reported in US10202378B2, “Therapeutic compounds and uses thereof” (GENENTECH, INC., priority 2015, dated 2019).

Legend:
TAF1-BD2 = TAF1-BD2 (Homo sapiens, UniProt P21675); assay: TAF1-BD2 TR-FRET Binding Assay; details: read-out: TAF1-BD2 HTRF IC50
TAF1-BD1 = TAF1-BD1 (Homo sapiens, UniProt P21675); assay: TAF1-BD1 TR-FRET Binding Assay; details: read-out: TAF1-BD1 HTRF IC50

Row | SMILES | IC50 (TAF1-BD2) | IC50 (TAF1-BD1)
1 | C=CCCn1cc(C#C[C@@](C)(O)c2cc(C)on2)c2c(C(=O)OCc3ccccc3C)c(C)[nH]c2c1=O [Example 123, o-tolylmethyl 6-but-3-enyl-4-[(3R)-3-hydroxy-3-(5-methylisoxazol-3-yl)but-1-ynyl]-2-methyl-7-oxo-1H-pyrrolo[2,3-c]pyridine-3-carboxylate] | 243 nM | > 20000 nM
2 | C=CCCn1cc(C#CC(C)(C)O)c2c(C(=O)OCc3ccccc3C)c(C)[nH]c2c1=O [Example 124, o-tolylmethyl 6-but-3-enyl-4-(3-hydroxy-3-methyl-but-1-ynyl)-2-methyl-7-oxo-1H-pyrrolo[2,3-c]pyridine-3-carboxylate] | 59.7 nM | > 20000 nM
3 | C=CCCn1cc(C#C[C@@](C)(O)c2cc(C)on2)c2c(C(=O)OCC(C)C)c(C)[nH]c2c1=O [Example 125, isobutyl 6-but-3-enyl-4-[(3R)-3-hydroxy-3-(5-methylisoxazol-3-yl)but-1-ynyl]-2-methyl-7-oxo-1H-pyrrolo[2,3-c]pyridine-3-carboxylate] | 169 nM | 3050 nM
4 | Cc1[nH]c2c(=O)n(C)cc(C#CC(C)(O)CO)c2c1C(=O)OCC(C)C (centres unmarked) [Example 127, isobutyl 4-(3,4-dihydroxy-3-methyl-but-1-ynyl)-2,6-dimethyl-7-oxo-1H-pyrrolo[2,3-c]pyridine-3-carboxylate] | 68.4 nM | 727 nM
5 | Cc1[nH]c2c(=O)n(C)cc(C#CC(C)(O)C(C)C)c2c1C(=O)OCC(C)C (centres unmarked) [Example 128, isobutyl 4-(3-hydroxy-3,4-dimethyl-pent-1-ynyl)-2,6-dimethyl-7-oxo-1H-pyrrolo[2,3-c]pyridine-3-carboxylate] | 62 nM | 253 nM
6 | Cc1[nH]c2c(=O)n(C)cc(C#CC(O)(c3ccccc3)C(F)(F)F)c2c1C(=O)OCC(C)C (centres unmarked) [Example 130, isobutyl 2,6-dimethyl-7-oxo-4-(4,4,4-trifluoro-3-hydroxy-3-phenyl-but-1-ynyl)-1H-pyrrolo[2,3-c]pyridine-3-carboxylate] | 280 nM | 1540 nM
7 | CCCCC(C)(C)OC(=O)c1c(C)[nH]c2c(=O)n(C)cc(C#CC(C)(O)C3CC3)c12 (centres unmarked) [Example 137, 1,1-dimethylpentyl 4-(3-cyclopropyl-3-hydroxy-but-1-ynyl)-2,6-dimethyl-7-oxo-1H-pyrrolo[2,3-c]pyridine-3-carboxylate] | 79 nM | 481 nM
8 | Cc1[nH]c2c(=O)n(C)cc(C#CC(C)(O)C3CC3)c2c1C(=O)OC(C)C(C)C (centres unmarked) [Example 141, 1,2-dimethylpropyl 4-(3-cyclopropyl-3-hydroxy-but-1-ynyl)-2,6-dimethyl-7-oxo-1H-pyrrolo[2,3-c]pyridine-3-carboxylate] | 75.6 nM | 244 nM
9 | Cc1[nH]c2c(=O)n(C)cc(C#CC(C)(O)CC#N)c2c1C(=O)OCC(C)C (centres unmarked) [Example 154, isobutyl 4-(4-cyano-3-hydroxy-3-methyl-but-1-ynyl)-2,6-dimethyl-7-oxo-1H-pyrrolo[2,3-c]pyridine-3-carboxylate] | 99.8 nM | 150 nM
10 | Cc1[nH]c2c(=O)n(C)cc(C#CC(C)(O)CC#N)c2c1C(=O)OC(C)C (centres unmarked) [Example 156, isopropyl 4-(4-cyano-3-hydroxy-3-methyl-but-1-ynyl)-2,6-dimethyl-7-oxo-1H-pyrrolo[2,3-c]pyridine-3-carboxylate] | 106 nM | 276 nM
11 | Cc1cc([C@](C)(O)C#Cc2cn(C)c(=O)c3[nH]c(C)c(C(=O)OC(C)C)c23)no1 [Example 157, isopropyl 4-[(3R)-3-hydroxy-3-(5-methylisoxazol-3-yl)but-1-ynyl]-2,6-dimethyl-7-oxo-1H-pyrrolo[2,3-c]pyridine-3-carboxylate] | 71.2 nM | 233 nM

Compounds with a lower IC50 (TAF1-BD2), results first:

Row | IC50 (TAF1-BD2) | IC50 (TAF1-BD1) | SMILES
12 | 40.1 nM | 123 nM | Cc1[nH]c2c(=O)n(C)cc(C#CC(C)(O)C3CC3)c2c1C(=O)OCC(C)C (centres unmarked) [Example 126, isobutyl 4-(3-cyclopropyl-3-hydroxy-but-1-ynyl)-2,6-dimethyl-7-oxo-1H-pyrrolo[2,3-c]pyridine-3-carboxylate]
13 | 29.9 nM | 173 nM | Cc1[nH]c2c(=O)n(C)cc(C#CC(C)(C)O)c2c1C(=O)OCC(C)C [Example 132, isobutyl 4-(3-hydroxy-3-methyl-but-1-ynyl)-2,6-dimethyl-7-oxo-1H-pyrrolo[2,3-c]pyridine-3-carboxylate]
14 | 31.1 nM | 308 nM | Cc1[nH]c2c(=O)n(C)cc(C#CC(C)(C)O)c2c1C(=O)OC(C)(C)C [Example 133, tert-butyl 4-(3-hydroxy-3-methyl-but-1-ynyl)-2,6-dimethyl-7-oxo-1H-pyrrolo[2,3-c]pyridine-3-carboxylate]
15 | 26.8 nM | 222 nM | Cc1[nH]c2c(=O)n(C)cc(C#CC(C)(O)C3CC3)c2c1C(=O)OC(C)(C)CC#N (centres unmarked) [Example 134, (2-cyano-1,1-dimethyl-ethyl)-4-(3-cyclopropyl-3-hydroxy-but-1-ynyl)-2,6-dimethyl-7-oxo-1H-pyrrolo[2,3-c]pyridine-3-carboxylate]
16 | 40.8 nM | 295 nM | CC(=O)NCCCOC(=O)c1c(C)[nH]c2c(=O)n(C)cc(C#CC(O)(c3ccccc3)C(F)(F)F)c12 (centres unmarked) [Example 135, 3-acetamidopropyl 2,6-dimethyl-7-oxo-4-(4,4,4-trifluoro-3-hydroxy-3-phenyl-but-1-ynyl)-1H-pyrrolo[2,3-c]pyridine-3-carboxylate]
17 | 36.5 nM | 267 nM | Cc1[nH]c2c(=O)n(C)cc(C#CC(O)(c3ccccc3)C(F)(F)F)c2c1C(=O)OC(C)(C)CC#N (centres unmarked) [Example 136, (2-cyano-1,1-dimethyl-ethyl) 2,6-dimethyl-7-oxo-4-(4,4,4-trifluoro-3-hydroxy-3-phenyl-but-1-ynyl)-1H-pyrrolo[2,3-c]pyridine-3-carboxylate]
18 | 47.7 nM | 232 nM | CCC(C)(C)OC(=O)c1c(C)[nH]c2c(=O)n(C)cc(C#C[C@@](C)(O)c3cc(C)on3)c12 [Example 139, 1,1-dimethylpropyl 4-[(3R)-3-hydroxy-3-(5-methylisoxazol-3-yl)but-1-ynyl]-2,6-dimethyl-7-oxo-1H-pyrrolo[2,3-c]pyridine-3-carboxylate]
19 | 43.2 nM | 288 nM | CCCCC(C)(C)OC(=O)c1c(C)[nH]c2c(=O)n(C)cc(C#CC(C)(C)O)c12 [Example 146, 1,1-dimethylpentyl 4-(3-hydroxy-3-methyl-but-1-ynyl)-2,6-dimethyl-7-oxo-1H-pyrrolo[2,3-c]pyridine-3-carboxylate]
20 | 23.7 nM | 96.8 nM | Cc1[nH]c2c(=O)n(C)cc(C#CC(C)(C)O)c2c1C(=O)OCC1CCCC1 [Example 148, cyclopentylmethyl 4-(3-hydroxy-3-methyl-but-1-ynyl)-2,6-dimethyl-7-oxo-1H-pyrrolo[2,3-c]pyridine-3-carboxylate]
21 | 30.4 nM | 93.6 nM | Cc1[nH]c2c(=O)n(C)cc(C#CC(C)(C)O)c2c1C(=O)OCC(C)(C)C [Example 150, 2,2-dimethylpropyl 4-(3-hydroxy-3-methyl-but-1-ynyl)-2,6-dimethyl-7-oxo-1H-pyrrolo[2,3-c]pyridine-3-carboxylate]
22 | 35.1 nM | 221 nM | CCC(C)(C)OC(=O)c1c(C)[nH]c2c(=O)n(C)cc(C#CC(C)(C)O)c12 [Example 151, 1,1-dimethylpropyl 4-(3-hydroxy-3-methyl-but-1-ynyl)-2,6-dimethyl-7-oxo-1H-pyrrolo[2,3-c]pyridine-3-carboxylate]
